Columns and labels:
Format in all cases: cell-based
M14 = system: M14
MDA-MB-435 = system: MDA-MB-435
SK-MEL-5 = system: SK-MEL-5
UACC-62 = system: UACC-62
OVCAR-5 = system: OVCAR-5
OVCAR-8 = system: OVCAR-8
NCI/ADR-RES = system: NCI/ADR-RES
SK-OV-3 = system: SK-OV-3
ACHN = system: ACHN
RXF 393 = system: RXF 393
SN12C = system: SN12C
TK-10 = system: TK-10
UO-31 = system: UO-31
PC-3 = system: PC-3
DU-145 = system: DU-145
MCF7 = system: MCF7
MDA-MB-231/ATCC = system: MDA-MB-231/ATCC
BT-549 = system: BT-549
T-47D = details: Breast cancer; 10^−5 molar; 48 hours; SRB
60 cancer cell lines = assay: NCI 60-cell screen, SRB, whole panel (mean, delta, range)
[1] = Melanoma, 10^−5 molar, 48 hours, SRB
[2] = Ovarian cancer, 10^−5 molar, 48 hours, SRB
[3] = Renal cancer, 10^−5 molar, 48 hours, SRB
[4] = Prostate cancer, 10^−5 molar, 48 hours, SRB
[5] = Breast cancer, 10^−5 molar, 48 hours, SRB

Structure (SMILES): CCNc1nc2ccccc2c2c(=O)c3cc(Cl)ccc3sc12 [Compound N2, 10-Chloro-6-ethylamino-12H-thiochromeno[2,3-c]quinolin-12-one]
- LC50 (M14; Homo sapiens, M14, five dose): > 100 µM
- TGI (M14; M14, five dose): >100 µM
- Growth percent M14 (M14; [1]): 91.72%
- GI50 (MDA-MB-435; Homo sapiens, MDA-MB-435, five dose): > 100 µM
- CC50 (MDA-MB-435; Homo sapiens, MDA-MB-435, five dose, read-out: LC50 (the source's name)): > 100 µM
- TGI (MDA-MB-435; MDA-MB-435, five dose): >100 µM
- Growth percent MDA-MB-435 (MDA-MB-435; [1]): 80.67%
- LC50 (SK-MEL-5; Homo sapiens, SK-MEL-5, five dose): > 100 µM
- Growth percent SK-MEL-5 (SK-MEL-5; [1]): 73.99%
- TGI (SK-MEL-5; SK-MEL-5, five dose): >100 µM
- GI50 (UACC-62; Homo sapiens, UACC-62, five dose): 22.3 µM
- CC50 (UACC-62; Homo sapiens, UACC-62, five dose, read-out: LC50 (the source's name)): > 100 µM
- Growth percent UACC-62 (UACC-62; [1]): 69.06%
- TGI (UACC-62; UACC-62, five dose): >100 µM
- GI50 (OVCAR-5; Homo sapiens, OVCAR-5, five dose): > 100 µM
- CC50 (OVCAR-5; Homo sapiens, OVCAR-5, five dose, read-out: LC50 (the source's name)): > 100 µM
- TGI (OVCAR-5; OVCAR-5, five dose): >100 µM
- Growth percent OVCAR-5 (OVCAR-5; [2]): 92.93%
- GI50 (OVCAR-8; Homo sapiens, OVCAR-8, five dose): 17.7 µM
- CC50 (OVCAR-8; Homo sapiens, OVCAR-8, five dose, read-out: LC50 (the source's name)): > 100 µM
- TGI (OVCAR-8; OVCAR-8, five dose): >100 µM
- Growth percent OVCAR-8 (OVCAR-8; [2]): 62.54%
- GI50 (NCI/ADR-RES; Homo sapiens, NCI/ADR-RES, five dose): 33.5 µM
- CC50 (NCI/ADR-RES; Homo sapiens, NCI/ADR-RES, five dose, read-out: LC50 (the source's name)): > 100 µM
- TGI (NCI/ADR-RES; NCI/ADR-RES, five dose): >100 µM
- Growth percent NCI/ADR-RES (NCI/ADR-RES; [2]): 88.61%
- GI50 (SK-OV-3; Homo sapiens, SK-OV-3, five dose): 11.1 µM
- CC50 (SK-OV-3; Homo sapiens, SK-OV-3, five dose, read-out: LC50 (the source's name)): > 100 µM
- Growth percent SK-OV-3 (SK-OV-3; [2]): 28.90%
- TGI (SK-OV-3; SK-OV-3, five dose): 35.20 µM
- TGI (ACHN; ACHN, five dose): >100 µM
- GI50 (ACHN; Homo sapiens, ACHN, five dose): 8.66 µM
- CC50 (ACHN; Homo sapiens, ACHN, five dose, read-out: LC50 (the source's name)): > 100 µM
- Growth percent ACHN (ACHN; [3]): 43.77%
- GI50 (RXF 393; Homo sapiens, RXF 393, five dose): 13.1 µM
- CC50 (RXF 393; Homo sapiens, RXF 393, five dose, read-out: LC50 (the source's name)): > 100 µM
- TGI (RXF 393; RXF 393, five dose): 44.6 µM
- Growth percent RXF 393 (RXF 393; [3]): 34.56%
- GI50 (SN12C; Homo sapiens, SN12C, five dose): 75.3 µM
- CC50 (SN12C; Homo sapiens, SN12C, five dose, read-out: LC50 (the source's name)): > 100 µM
- Growth percent SN12C (SN12C; [3]): 84.57%
- TGI (SN12C; SN12C, five dose): >100 µM
- CC50 (TK-10; Homo sapiens, TK-10, five dose, read-out: LC50 (the source's name)): > 100 µM
- Growth percent TK-10 (TK-10; [3]): 47.11%
- GI50 (UO-31; Homo sapiens, UO-31, five dose): 29.4 µM
- CC50 (UO-31; Homo sapiens, UO-31, five dose, read-out: LC50 (the source's name)): > 100 µM
- Growth percent UO-31 (UO-31; [3]): 32.06%
- TGI (UO-31; UO-31, five dose): >100 µM
- GI50 (PC-3; Homo sapiens, PC-3, five dose): > 100 µM
- CC50 (PC-3; Homo sapiens, PC-3, five dose, read-out: LC50 (the source's name)): > 100 µM
- TGI (PC-3; PC-3, five dose): >100 µM
- Growth percent PC-3 (PC-3; [4]): 77.80%
- TGI (DU-145; DU-145, five dose): >100 µM
- GI50 (DU-145; Homo sapiens, DU-145, five dose): > 100 µM
- CC50 (DU-145; Homo sapiens, DU-145, five dose, read-out: LC50 (the source's name)): > 100 µM
- Growth percent DU-145 (DU-145; [4]): 87.67%
- Growth percent MCF7 (Table 2: MCF) (MCF7; [5]): 17.54%
- CC50 (MCF7; Homo sapiens, MCF7, five dose, read-out: LC50 (the source's name)): > 100 µM
- TGI (MCF7; MCF7, five dose): >100 µM
- Growth percent MDA-MB-231/ATCC (MDA-MB-231/ATCC; [5]): 48.66%
- GI50 (MDA-MB-231/ATCC; Homo sapiens, MDA-MB-231/ATCC, five dose): 10.1 µM
- CC50 (MDA-MB-231/ATCC; Homo sapiens, MDA-MB-231/ATCC, five dose, read-out: LC50 (the source's name)): > 100 µM
- TGI (MDA-MB-231/ATCC; MDA-MB-231/ATCC, five dose): 65.5 µM
- TGI (BT-549; BT-549, five dose): >100 µM
- Growth percent BT-549 (BT-549; [5]): 100.10%
- GI50 (BT-549; Homo sapiens, BT-549, five dose): 9.87 µM
- CC50 (BT-549; Homo sapiens, BT-549, five dose, read-out: LC50 (the source's name)): > 100 µM
- Growth percent T-47D (T-47D): 38.28%
- GI50 (60 cancer cell lines; 60 cell, mean over panel, five dose): 28.8 µM
- CC50 (60 cancer cell lines; 60 cell, mean over panel, five dose, read-out: LC50, Mean): 100 µM
- Growth percent, Delta (60 cancer cell lines; delta over the cell panel, 10^−5 molar, 48 hours, SRB): 66.04%
- TGI, Mean (60 cancer cell lines; mean over panel, five dose): 83.18 µM
- Growth percent, Mean (60 cancer cell lines; mean over the cell panel, 10^−5 molar, 48 hours, SRB): 65.97%
- Growth percent, Range (60 cancer cell lines; range over the cell panel, 10^−5 molar, 48 hours, SRB): 103.40%

— patent publication US8927717B1, “Thiochromeno[2,3-c]quinolin-12-one derivatives, preparation method and application thereof” (National Defense Medical Center, priority 2014, dated 2015)
